For 18 molecules, IC50 results are on record in US20210355104A1, “ADENOSINE RECEPTOR BINDING COMPOUNDS” (Nikang Therapeuticsm Inc., priority 2018, published 2021).

Values joined by “and” are separate entries in the source; they are usually repeats but may differ in a detail not shown here. Equal entries are not always repeated.

Experiment [1] deals with T1, Adenosine A2A receptor (Homo sapiens, UniProt P29274). Description: Adenosine A2A receptor competitive binding assay (Tag-lite HTRF). Conditions: Tag-lite adenosine A2A receptor ligand binding, HTRF. In outline: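 Compound displacement of a red fluorescent antagonist tracer (added at 60 nM stock) from donor-labelled, pre-transfected human A2A cells was read by HTRF after 2 h at room temperature; compound dilutions contained 0.6% DMSO.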
T1 sequence (P29274 whole entry): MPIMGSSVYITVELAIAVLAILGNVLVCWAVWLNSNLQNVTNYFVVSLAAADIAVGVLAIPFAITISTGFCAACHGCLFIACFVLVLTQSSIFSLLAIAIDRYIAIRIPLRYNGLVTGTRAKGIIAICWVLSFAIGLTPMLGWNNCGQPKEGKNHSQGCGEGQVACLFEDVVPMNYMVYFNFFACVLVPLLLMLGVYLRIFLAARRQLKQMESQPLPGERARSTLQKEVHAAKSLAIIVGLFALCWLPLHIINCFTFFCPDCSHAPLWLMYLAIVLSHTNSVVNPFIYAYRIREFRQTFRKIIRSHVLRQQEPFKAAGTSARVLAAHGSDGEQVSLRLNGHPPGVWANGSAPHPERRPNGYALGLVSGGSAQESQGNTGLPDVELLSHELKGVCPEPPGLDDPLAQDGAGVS
(In TR-FRET formats the signal depends on donor and acceptor labels being close together.)

The test system of experiment [2] is p-CREB (phosphorylated cAMP response-element binding protein) in human whole blood. In words: p-CREB assay in human whole blood by flow cytometry (NECA stimulation, CD4 staining). Type of experiment: cell-based. Conditions: Homo sapiens. Summed up:
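Fresh human whole blood preincubated 1 h at room temperature with compounds (11-point 1:3 series from 30 uM) plus adenosine deaminase, then stimulated 30 min with NECA and Rolipram (10× additions of 50 uM stocks). Cells lysed/fixed, permeabilised, stained for p-CREB and CD4, read by flow cytometry.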
On the technique in general: A flow cytometer gives signals particle by particle.

In experiment [3] the target is T1, Adenosine A2A receptor. In words: cAMP assay in 293A cells stably expressing the adenosine A2A receptor (CGS21680 stimulation, HTRF). The settings on record: 0.1% BSA, read-out: cAMP (nM) 0.1% BSA, 1 uM CGS. Type of experiment: cell-based. The arrangement: expressed in transfected cells; host or cells: 293A cells (Invitrogen, Cat# R705-07) infected with A2A-expressing lentivirus (custom packaged by Biosettia), puromycin selected. On the technique in general: Changes in cAMP serve as a functional read-out for many G protein-coupled receptors.

The mark [4] stands for this setting: replicate values separated by /.
Setting [5] is: 293A cells stably expressing A2A receptor, 1 uM CGS21680 stimulation, replicate values separated by /.

Take `Cc1cc(-c2c(OCc3nccn3CCCC(=O)O)nc(N)nc2-c2ccc(F)cc2)cc(C(F)F)n1` [Example 219, 4-(2-(((2-amino-5-(2-(difluoromethyl)-6-methylpyridin-4-yl)-6-(4-fluorophenyl)pyrimidin-4-yl)oxy)methyl)-1H-imidazol-1-yl)butanoic acid]: the IC50 was found to be 9 nM on Adenosine A2A receptor [1] and 170 nM in experiment [2].

Turning to `Cc1cc(-c2c(OCc3cccc(-c4nn[nH]n4)n3)nc(N)nc2-c2ccc(F)cc2)cc(C(F)F)n1` [Example 399, 4-((6-(2H-tetrazol-5-yl)pyridin-2-yl)methoxy)-5-(2-(difluoromethyl)-6-methylpyridin-4-yl)-6-(4-fluorophenyl)pyrimidin-2-amine], the IC50 in experiment [2] (setting [4]) is 201 nM; on Adenosine A2A receptor [3] (setting [5]) it was 273 nM and 362 nM and 482 nM and 440 nM.

For `CCn1c(COc2nc(N)nc(-c3ccc(F)cc3)c2-c2cc(C)nc(C(F)F)c2)nc2ccccc21` [Example 315, 5-(2-(difluoromethyl)-6-methylpyridin-4-yl)-4-((1-ethyl-1H-benzo[d]imidazol-2-yl)methoxy)-6-(4-fluorophenyl)pyrimidin-2-amine], the IC50 in experiment [2] was 24.8 nM; on Adenosine A2A receptor [3] (293A-A2AR cells, 1 uM CGS), 1.8 nM and 15 nM.

In the case of `Cc1cc(-c2c(OCc3nccs3)nc(N)nc2-c2ccc(F)cc2)cc(C(F)F)n1` [Example 350, 5-(2-(difluoromethyl)-6-methylpyridin-4-yl)-4-(4-fluorophenyl)-6-(thiazol-2-ylmethoxy)pyrimidin-2-amine], the IC50 in experiment [2] is 4 nM; at Adenosine A2A receptor [3] (293A-A2AR cells, 1 uM CGS) it was 26.1 nM and 5.9 nM and 30 nM.

With `Cc1cc(-c2c(OCc3cccc(OCCO)n3)nc(N)nc2-c2ccc(F)cc2)cc(C(F)F)n1` [Example 305], the IC50 in experiment [2] is 61.7 nM; on Adenosine A2A receptor [3] (293A-A2AR cells, 1 uM CGS) it was 196 nM.

Consider `Cc1cc(-c2c(OCc3cccc(CNCCO)n3)nc(N)nc2-c2ccc(F)cc2)cc(C(F)F)n1` [Example 418, 2-(((6-(((2-amino-5-(2-(difluoromethyl)-6-methylpyridin-4-yl)-6-(4-fluorophenyl)pyrimidin-4-yl)oxy)methyl)pyridin-2-yl)methyl)amino)ethan-1-ol], for which the IC50 in experiment [2] (setting [4]) was 89.3 nM; on Adenosine A2A receptor [3] (setting [5]) it was 191 nM and 177 nM.

As to `Cc1cc(-c2c(OCCN3CCCc4cccnc43)nc(N)nc2-c2ccc(F)cc2)cc(C(F)F)n1` [Example 408, 5-(2-(difluoromethyl)-6-methylpyridin-4-yl)-4-(2-(3,4-dihydro-1,8-naphthyridin-1 (2H)-yl)ethoxy)-6-(4-fluorophenyl)pyrimidin-2-amine], the IC50 in experiment [2] (setting [4]) was 37.9 nM; at Adenosine A2A receptor [3] (setting [5]) it was 68 nM and 41 nM and 19 nM and 74 nM.

For the molecule `Cc1cc(-c2c(OC3CCn4ccnc43)nc(N)nc2-c2ccc(F)cc2)cc(C(F)F)n1` (stereo not drawn) [Example 284, 5-(2-(difluoromethyl)-6-methylpyridin-4-yl)-4-((6,7-dihydro-5H-pyrrolo[1,2-a]imidazol-7-yl)oxy)-6-(4-fluorophenyl)pyrimidin-2-amine], the IC50 in experiment [2] was 392 nM; on Adenosine A2A receptor [3] (293A-A2AR cells, 1 uM CGS) it was 382 nM and 289 nM.

Consider `Cc1cc(-c2c(OCc3cccc(C(C#N)(CCO)CCO)n3)nc(N)nc2-c2ccc(F)cc2)cc(C(F)F)n1` [Example 431, 2-(6-(((2-amino-5-(2-(difluoromethyl)-6-methylpyridin-4-yl)-6-(4-fluorophenyl)pyrimidin-4-yl)oxy)methyl)pyridin-2-yl)-4-hydroxy-2-(2-hydroxyethyl)butanenitrile], for which the IC50 is 2000 nM in experiment [2] (setting [4]); 412 nM and 315 nM and 310 nM at Adenosine A2A receptor [3] (setting [5]).

On to `Cc1cc(-c2c(OCc3ccnc(OC(CO)CO)n3)nc(N)nc2-c2ccc(F)cc2)cc(C(F)F)n1` [Example 434, 2-((4-(((2-amino-5-(2-(difluoromethyl)-6-methylpyridin-4-yl)-6-(4-fluorophenyl)pyrimidin-4-yl)oxy)methyl)pyrimidin-2-yl)oxy)propane-1,3-diol], for which the IC50 in experiment [2] (setting [4]) was 411 nM; on Adenosine A2A receptor [3] (setting [5]), 346 nM and 290 nM.

For `Cc1cc(-c2c(OCc3cccc(C4(CCO)CCOC4=O)n3)nc(N)nc2-c2ccc(F)cc2)cc(C(F)F)n1` (stereo not drawn) [Example 439, 3-(6-(((2-amino-5-(2-(difluoromethyl)-6-methylpyridin-4-yl)-6-(4-fluorophenyl)pyrimidin-4-yl)oxy)methyl)pyridin-2-yl)-3-(2-hydroxyethyl)dihydrofuran-2(3H)-one], the IC50 in experiment [2] (setting [4]) turned out to be 252 nM; at Adenosine A2A receptor [3] (setting [5]), 103 nM.

As to `Cc1cc(-c2c(OCc3cccc(C4CC4)n3)nc(N)nc2-c2ccc(F)cc2)cc(C(F)F)n1` [Example 326, 4-((6-cyclopropylpyridin-2-yl)methoxy)-5-(2-(difluoromethyl)-6-methylpyridin-4-yl)-6-(4-fluorophenyl)pyrimidin-2-amine], the IC50 in experiment [2] is 57.1 nM; at Adenosine A2A receptor [3] (293A-A2AR cells, 1 uM CGS), 90 nM and 144 nM and 84 nM.

As for `Cc1cc(-c2c(OCc3cc(C(C)(C)C#N)ccn3)nc(N)nc2-c2ccc(F)cc2)cc(C(F)F)n1` [Example 257, 2-(2-(((2-amino-5-(2-(difluoromethyl)-6-methylpyridin-4-yl)-6-(4-fluorophenyl)pyrimidin-4-yl)oxy)methyl)pyridin-4-yl)-2-methylpropanenitrile], the IC50 was 19 nM in experiment [2]; 250 nM and 171 nM on Adenosine A2A receptor [3] (293A-A2AR cells, 1 uM CGS).

On to `Cc1cc(-c2c(OCc3cccc([C@@H]4C[C@@H]4C(=O)O)n3)nc(N)nc2-c2ccc(F)cc2)cc(C(F)F)n1` (relative stereo) [Example 354, (1,2-cis)-2-(6-(((2-amino-5-(2-(difluoromethyl)-6-methylpyridin-4-yl)-6-(4-fluorophenyl)pyrimidin-4-yl)oxy)methyl)pyridin-2-yl)cyclopropane-1-carboxylic acid], for which the IC50 in experiment [2] was 549 nM; at Adenosine A2A receptor [3] (293A-A2AR cells, 1 uM CGS) it was 563 nM and 977 nM.

Take `Cc1cc(-c2c(OCc3cccc([C@@H]4C[C@H]4C(=O)O)n3)nc(N)nc2-c2ccc(F)cc2)cc(C(F)F)n1` (relative stereo) [Example 353, (1,2-trans)-2-(6-(((2-amino-5-(2-(difluoromethyl)-6-methylpyridin-4-yl)-6-(4-fluorophenyl)pyrimidin-4-yl)oxy)methyl)pyridin-2-yl)cyclopropane-1-carboxylic acid]: the IC50 stood at 374 nM in experiment [2] and 1240 nM at Adenosine A2A receptor [3] (293A-A2AR cells, 1 uM CGS).

As to `Cc1cc(-c2c(OCc3cccc(COC(N)=O)n3)nc(N)nc2-c2ccc(F)cc2)cc(C(F)F)n1` [Example 429, (6-(((2-amino-5-(2-(difluoromethyl)-6-methylpyridin-4-yl)-6-(4-fluorophenyl)pyrimidin-4-yl)oxy)methyl)pyridin-2-yl)methyl carbamate], the IC50 is 33 nM in experiment [2] (setting [4]); 59 nM and 43 nM on Adenosine A2A receptor [3] (setting [5]).

Turning to `CNC(=O)NCc1cccc(COc2nc(N)nc(-c3ccc(F)cc3)c2-c2cc(C)nc(C(F)F)c2)n1` [Example 415, 1-((6-(((2-amino-5-(2-(difluoromethyl)-6-methylpyridin-4-yl)-6-(4-fluorophenyl)pyrimidin-4-yl)oxy)methyl)pyridin-2-yl)methyl)-3-methylurea], the IC50 in experiment [2] (setting [4]) is 16 nM; on Adenosine A2A receptor [3] (setting [5]), 97 nM and 152 nM and 129 nM.

As for `Cc1cc(-c2c(OCc3cccc(CNCC(=O)N(C)C)n3)nc(N)nc2-c2ccc(F)cc2)cc(C(F)F)n1` [Example 437, 2-(((6-(((2-amino-5-(2-(difluoromethyl)-6-methylpyridin-4-yl)-6-(4-fluorophenyl)pyrimidin-4-yl)oxy)methyl)pyridin-2-yl)methyl)amino)-N,N-dimethylacetamide], the IC50 in experiment [2] (setting [4]) amounted to 232 nM; at Adenosine A2A receptor [3] (setting [5]), 282 nM.
